What was measured:
[1] = Blood ionized calcium level in mice after percutaneous administration (Test Examples 1 and 3); assay type: in vivo; details: Balb/c mice, percutaneous single application, dose 1000 μg/kg, blood taken two days after administration
Procedure: Eight week old male Balb/c mice were percutaneously administered with active vitamin D3 (1α,25 (OH)2D3, 125 μg/ml in ethanol) or Compounds 1 to 5 (vitamin D derivatives prepared in the above Examples, 500 μg/ml in ethanol) or ethanol alone (as a control). These samples were applied once to the dorsal skin (about 1.5×2.0 cm^2) of the mice in a volume of 2 ml/kg. Each of the mice was then fitted with a necklace harness in order to avoid oral ingestion. On the next day, the administered sites were cleaned and the necklace harnesses were removed. Two days after administration, blood was taken from each mouse and assayed for ionized calcium level by the ion selective electrode method. The assay was performed in groups of 3 mice. […] Ionized calcium levels in the table are expressed as mean values.
The same procedures as shown in Test Example 1 were repeated to assay blood ionized calcium levels in mice, except that Compounds 6 to 12 were used as vitamin D derivatives. […] Ionized calcium levels in the table are expressed as mean values.

[2] = test system: Keratinocytes from adult human skin; assay: Growth inhibition against keratinocytes, [3H]thymidine incorporation (Test Example 4); assay type: cell-based; details: relative inhibition = IC50 of active vitamin D3 / IC50 of test compound
Procedure: Keratinocytes from adult human skin (Clonetics) were seeded in 96-well plates (COSTAR 3595) at a cell density of 1×10^3/well. The wells were then supplemented with the given concentrations of active vitamin D3 (1α,25 (OH)2D3) or Compounds 6 to 12, followed by incubation in KGM-2 medium at a cell density of 1×10^3 cells/200 μl/well for 3 days at 37° C. in 5% CO2 and 95% air. [^3H]Thymidine was added to each well (7.4 kBq/well) and the plates were further incubated for 1 day. After removal of the medium, each well was treated with 0.05% trypsin/0.53 mM EDTA to strip the cells. The amount of [^3H]thymidine incorporated into the cells was determined with a liquid scintillation counter (1450 MicroBeta, Wallac). […] Growth inhibition against keratinocytes in the table was expressed as a relative value of each compound compared to active vitamin D3: Relative inhibition=(IC50 (mol/l) of active vitamin D3)/(IC50 (mol/l) of test compound).

[3] = test system: Keratinocytes from human neonatal foreskin; assay: Growth inhibition against human keratinocytes, [3H]thymidine uptake (Test Example 2); assay type: cell-based; details: relative inhibition = IC50 of active vitamin D3 / IC50 of each compound
Procedure: Keratinocytes from human neonatal foreskin (Clonetics) were seeded in 96-well plates (COSTAR 3595) at a cell density of 2×10^3/well. The wells were then supplemented with the given concentrations of active vitamin D3 (1α,25 (OH)2D3) or Compounds 1 to 5, followed by incubation in KGM-2 medium at a cell density of 2×10^3 cells/200 μl/well for 3 days at 37° C. in 5% CO2 and 95% air. [^3H]Thymidine was added to each well (7.4 kBq/well) and the plates were further incubated for 1 day. Each well was washed once with calcium- and magnesium-free phosphate buffer (Dulbecco's PBS(−), Nissui, code 05913, pH 7.3-7.65) and then treated with 0.25% trypsin to strip the cells. The [^3H]thymidine uptake of the cells was determined by a liquid scintillation counter (1450 MicroBeta, Wallac). […] Growth inhibition against human keratinocytes in the table was expressed as a relative value of each compound compared to active vitamin D3: Relative inhibition=(IC50 (mol/l) of active vitamin D3)/(IC50 (mol/l) of each compound).

| Blood ionized calcium level ([1]; Test Example 3, mean values) | Blood ionized calcium level ([1]; Test Example 1, mean of 3 mice) | Compound | Growth inhibition against human keratinocytes (relative value) [2] | Growth inhibition against human keratinocytes (relative value) [3] |
| --- | --- | --- | --- | --- |
| 1.43 mmol/L |  | 1α,3β-dihydroxy-20(S)-(1,1-dimethylhexyloxycarbonylmethoxy)-9,10-secopregna-5,7,10(19),16-tetraene [Compound 10] | 1.6 |  |
| 1.28 mmol/L |  | 1α,3β-dihydroxy-20(S)-(1-isopropyl-2-methylpropoxycarbonylmethoxy)-9,10-secopregna-5,7,10(19),16-tetraene [Compound 7] | 0.4 |  |
|  | 2.27 mmol/L | 1α,3β-dihydroxy-20(S)-(N-tert-butyl-N-methylaminocarbonylmethoxy)-9,10-secopregna-5,7,10(19),16-tetraene [Compound 2] |  | 5.9 |
|  | 2.16 mmol/L | 1α,3β-dihydroxy-20(S)-(N-tert-butylaminocarbonylmethoxy)-9,10-secopregna-5,7,10(19),16-tetraene [Compound 4] |  | 7.0 |
|  |  | 1α,25(OH)2D3 | 1.0 | 1.0 |
|  |  | C=C1/C(=C\C=C2/CCC[C@]3(C)C([C@H](C)OCCC(=O)OC(C)(C)C)=CC[C@@H]23)C[C@@H](O)C[C@@H]1O [Compound 3, 1α,3β-dihydroxy-20(S)-(tert-butoxycarbonylethoxy)-9,10-secopregna-5,7,10(19),16-tetraene] |  | 0.5 |
|  | 1.35 mmol/L | C=C1C(=CC=C2CCCC3(C)C(C(C)OCC(=O)OC(C)C)=CCC23)CC(O)CC1O [Compound 5, 1α,3β-dihydroxy-20(S)-(isopropoxycarbonylmethoxy)-9,10-secopregna-5,7,10(19),16-tetraene] |  | 0.3 |
| 1.57 mmol/L |  | C=C1/C(=C\C=C2/CCC[C@]3(C)C([C@H](C)OCC(=O)OC(C)(CC)CC)=CC[C@@H]23)C[C@@H](O)C[C@@H]1O [Compound 6, 1α,3β-dihydroxy-20(S)-(1-ethyl-1-methylpropoxycarbonylmethoxy)-9,10-secopregna-5,7,10(19),16-tetraene] | 12.0 |  |
| 1.55 mmol/L |  | C=C1C(=CC=C2CCCC3(C)C2CCC3C(C)OCC(=O)OC(C)(CC)CC)CC(O)CC1O [Compound 9, 1α,3β-dihydroxy-20(S)-(1-ethyl-1-methylpropoxycarbonylmethoxy)-9,10-secopregna-5,7,10(19)-triene] | 0.7 |  |
| 1.42 mmol/L |  | C=C1C(=CC=C2CCCC3(C)C(C(C)OCCC(=O)OC(C)(CC)CC)=CCC23)CC(O)CC1O [Compound 11, 1α,3β-dihydroxy-20(S)-{2-(1-ethyl-1-methylpropoxycarbonyl)ethoxy}-9,10-secopregna-5,7,10(19),16-tetraene] | 0.4 |  |
| 1.58 mmol/L |  | C=C1/C(=C\C=C2/CCC[C@]3(C)C([C@H](C)OCC(=O)NCC(F)(F)C(F)(F)F)=CC[C@@H]23)C[C@@H](O)C[C@@H]1O [Compound 12, {(1α,3β-dihydroxy-9,10-secopregna-5,7,10(19),16-tetraen-20(S)-yl)oxy}-N-(2,2,3,3,3-pentafluoropropyl)acetamide] | 8.3 |  |

| Compound | Blood ionized calcium level ([1]; Test Example 3, mean values) | Blood ionized calcium level ([1]; Test Example 1, mean of 3 mice) | Growth inhibition against human keratinocytes (relative value) [2] | Growth inhibition against human keratinocytes (relative value) [3] |
| --- | --- | --- | --- | --- |
| 20(S)-(tert-butoxycarbonylmethoxy)-1α,3β-dihydroxy-9,10-secopregna-5,7,10(19),16-tetraene [Compound 1] |  | 1.65 mmol/L |  | 2.0 |
| C=C1C(=CC=C2CCCC3(C)C(C(C)OCC(=O)OC(C)(C)CCC)=CCC23)CC(O)CC1O [Compound 8, 1α,3β-dihydroxy-20(S)-(1,1-dimethylbutoxycarbonylmethoxy)-9,10-secopregna-5,7,10(19),16-tetraene] | 1.39 mmol/L |  | 2.5 |  |

Source: US7985744B2, “Vitamin D derivatives” (Chugai Seiyaku Kabushiki Kaisha, priority 2000, dated 2011)
